Experimental data as given in patent US8114846B2, “Combined treatment with an EGFR kinase inhibitor and an agent that sensitizes tumor cells to the effects of EGFR kinase inhibitors” (OSI Pharmaceuticals, LLC, priority 2006, dated 2012).
In brackets after ≈: the same amount, converted by molar mass. Entries after “also recorded” stand apart in the source; their conditions may differ.

Assays:
[1] = system: H460 cells; experiment: Cell proliferation (Cell Titer Glo), H460; type: cell-based, human
Method: (§1) The cell lines H460, Calu6, SW1573, H1703, H292, H358, HCT-116, HT-29, FET, GEO, SW480, Colo205 CBS, BxPC3, HPAC, CFPAC, MiaPaca-2, Panc1, MDA-MB-468, BT-20, MDA-MB-435 H441, H322, A1165, Igrov-1, Ovcar-3, CA-OV-3, MDAH2774, SW626, SKOV-3, Cal-27, RPMI 2650, and MDA-MB-231 were grown in media as prescribed by the ATCC, containing 10% FCS. Hsc-2, Hsc-4 and OVK-18 were obtained from the Riken Cell Bank and were cultured according to the Riken Cell Bank recommended conditions.

[2] = system: H292 cells; experiment: Cell proliferation (Cell Titer Glo), H292; type: cell-based, human; conditions: 10 μM erlotinib, 72 hours; maximal growth inhibition greater than 50% = high sensitivity
Method: as §1

[3] = system: BxPC3 cells; experiment: Cell proliferation (Cell Titer Glo), BxPC3; type: cell-based, human; conditions: 10 μM erlotinib, 72 hours; maximal growth inhibition greater than 50% = high sensitivity
Method: as §1

[4] = system: phosphorylation of S6 (readout for the activity of mTOR); experiment: Western blot of S6 phosphorylation in tumor cell lines; type: cell-based, human; conditions: 2 hours
Method: Preparation of Protein Lysates and Western Blotting:
With the exception of total ErbB3 (obtained from Santa Cruz Biotechnology, Inc., Santa Cruz, Calif.), all antibodies were obtained from Cell Signaling Technology, Inc. (Danvers, Mass.). For analysis of erlotinib's effect on the phosphorylation of downstream signaling proteins, cell lines were grown to approximately 70% confluency, at which time erlotinib was added at the indicated concentration, and cells were incubated at 37° C. for two hours. Where indicated, 10 ng/ml EGF ligand was added for 5 minutes. The media was removed, cells were washed two times with PBS, and cells were lysed as previously described.

[5] = system: Calu-6 NSCLC tumor cells; experiment: Calu6 xenograft model; type: in vivo, mice; conditions: day 19; Tarceva 100 mg/kg daily oral, or rapamycin 4 mg/kg i.p. day 1, 8, 15
Text: Female CD-1 nu/nu mice (Charles River Laboratories, Wilmington, Mass.) were implanted with harvested Calu-6 NSCLC tumor cells in a single subcutaneous site on the flank of the mice in the axillary region. Tumors were allowed to grow to 200+50 mm^3, at which time the animals were sorted into treatment groups (see below) of 8 animals per group, having approximately equal body weight (+/−1 g) within a group, and tattooed on the tail for permanent identification. Tumor volumes and body weights were determined twice weekly. The tumor volume was determined by measuring in two directions with vernier calipers and calculated using the formula: Tumor volume=(length×width^2)/2. The data were plotted as the % change in mean values of tumor volume and body weight for each group. The tumor growth inhibition (% TGI) was determined as % TGI=100(1−Wt/Wc): where Wt is the median tumor volume of the treated group at time x and We is the median tumor volume of the control group at time x. Tarceva was dosed in a 6% Captisol (CyDex, Inc) in WFI (Water for Injection) solution and all control animals were dosed with an equal volume of the vehicle. Tarceva animals were dosed by oral gavage once a day for 18 days and the % TGI measured on day 19. Rapamycin was dosed in 4% ethanol/5% PEG400/5% Tween 80 in WFI. […]

[6] = Solubility limit of erlotinib; type: physicochemical
[7] = system: three ovarian cell lines; experiment: Apoptosis (Caspase 3/7 Glo), ovarian cell lines; type: cell-based, human; conditions: 20 μM Compound A or 10 μM erlotinib
Method: as §1

[8] = system: one ovarian and one HNSCC cell line; experiment: Apoptosis (Caspase 3/7 Glo), one ovarian and one HNSCC cell line; type: cell-based, human
Method: as §1

[9] = system: Calu6 cells; conditions: 10 μM erlotinib, 72 hours; maximal growth inhibition greater than 50% = high sensitivity
Method: (§2) Measurement of Cell Proliferation: Cell proliferation was determined using the Cell Titer Glo assay (Promega Corporation, Madison, Wisc.). Cell lines were seeded at a density of 3000 cells per well in a 96-well plate. 24 hours after plating cells were dosed with varying concentrations of drug, either as a single agent or in combination. The signal for Cell Titer Glo was determined 72 hours after dosing.
(§3) Analysis of Additivity and Synergy: The Bliss additivism model was used to classify the effect of combining rapamycin and erlotinib as additive, synergistic, or antagonistic. A theoretical curve was calculated for combined inhibition using the equation: Ebliss=EA+EB−EA*EB, where EA and EB are the fractional inhibitions obtained by drug A alone and drug B alone at specific concentrations. […] If the experimentally measured fractional inhibition is less than Ebliss the combination was said to be synergistic. If the experimentally measured fractional inhibition is greater than Ebliss the combination was said to be antagonistic. For dose response curves, the Bliss additivity value was calculated for varying doses of drug A when combined with a constant dose of drug B. This allowed an assessment as to whether drug B affected the potency of drug A or shifted its intrinsic activity. All plots were generated using PRISM® software (Graphpad Software, San Diego, Calif.).

[10] = system: HCT-116 cells; conditions: 10 μM erlotinib, 72 hours; maximal growth inhibition greater than 50% = high sensitivity
Method: as §2, §3

[11] = system: H358 cells; conditions: 10 μM erlotinib, 72 hours; maximal growth inhibition greater than 50% = high sensitivity
Method: as §2, §3

[12] = system: 22 cell lines derived from NSCLC, colon, pancreatic, and breast tumors; experiment: cells; conditions: Homo sapiens, read-out: IC50 value
Method: as §2, §3

[13] = system: pAkt (S473); experiment: pAkt (S473) in cancer cell lines; type: cell-based
[14] = system: tumor cells; experiment: Anti-proliferative activity across tumor cell lines; type: cell-based

| solubility [6] [µM] | IC50 [12] [nM] | IC50 ([1]; Homo sapiens, NCI-H460, rapamycin without erlotinib, read-out: potency (growth inhibition)) [nM] | Compound | sensitivity to growth inhibition by erlotinib ([1]; 10 μM erlotinib, 72 hours, maximal growth inhibition greater than 50% = high sensitivity) | sensitivity to growth inhibition by erlotinib [2] | sensitivity to growth inhibition by erlotinib [3] | down-regulation of phosphorylation of S6 ([4]; relatively insensitive cell lines that have undergone EMT (H460, Calu6, HCT-116)) | down-regulation of phosphorylation of S6 ([4]; three sensitive epithelial cell lines (H292, H358, BxPC3)) | reduction in tumor growth as single agent [5] | apoptosis relative to DMSO treated cells, single agent [7] | apoptosis relative to DMSO treated cells, single agent [8] | sensitivity to growth inhibition by erlotinib [9] | sensitivity to growth inhibition by erlotinib [10] | sensitivity to growth inhibition by erlotinib [11] | Emax ([1]; Homo sapiens, NCI-H460, rapamycin without erlotinib, read-out: maximal efficacy (growth inhibition)) [%] | cancer cell lines in which pAkt (S473) is inhibited [13] [%] | cell lines in which treatment increases pAkt (S473) [13] [%] | cell lines in a given tumor type that are insensitive [14] |
| --- | --- | --- | --- | --- | --- | --- | --- | --- | --- | --- | --- | --- | --- | --- | --- | --- | --- | --- |
| 10 (≈ 3.93 µg/mL) | > 10000 | – | C#Cc1cccc(Nc2ncnc3cc(OCCOC)c(OCCOC)cc23)c1 [erlotinib, [6,7-bis(2-methoxyethoxy)-4-quinazolin-4-yl]-(3-ethynylphenyl) amine] | relatively insensitive | most sensitive | most sensitive | less pronounced down-regulation | efficiently down-regulate | no statistically significant reduction; also recorded: Neither rapamycin or erlotinib showed significant reduction | increased apoptosis | modest increase | relatively insensitive | relatively insensitive | most sensitive | – | – | – | – |
| – | – | 0.267 | CO[C@H]1C[C@@H]2CC[C@@H](C)[C@@](O)(O2)C(=O)C(=O)N2CCCC[C@H]2C(=O)O[C@H]([C@H](C)C[C@@H]2CC[C@@H](O)[C@H](OC)C2)CC(=O)[C@H](C)/C=C(\C)[C@@H](O)[C@@H](OC)C(=O)[C@H](C)C[C@H](C)/C=C/C=C/C=C/1C [rapamycin] | – | – | – | – | – | – | – | – | – | – | – | 34 | ~20 | ~65 | approximately 50% |
